In US11780826B2 (Amgen Inc., priority 2017, dated 2023) one finds AC1.4 data, which are given here for 26 compounds.

Structures are written as SMILES.

This test concerns Bovine cardiac myofibrils. The test can be described thus: In vitro model of dose-dependent myofibril ATPase modulation (AC1.4, pyruvate kinase/lactate dehydrogenase-coupled ATPase assay at pCa25). The class given is biochemical. Conditions: concentration at which ATPase activity was 1.4-fold higher than the bottom of the dose curve, mean of a minimum of two independent tests. In outline:
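ATP turnover tracked as NADH absorbance loss at 340 nm, coupled via pyruvate kinase/lactate dehydrogenase, with 1 mM ATP, 2 mM MgCl2 and 12 mM K-PIPES at pH 6.80 (22° C) under EGTA/CaCl2 calcium buffering. Substrate was detergent-treated bovine cardiac myofibrils; 4-parameter curve fit, AC1.4 averaged over at least two runs.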
In turn, `O=C(N[C@@H](c1ccc(C(F)(F)F)cc1F)C1COC1)[C@H]1C[C@H]2C[C@H]2N1C(=O)c1cncc(C2CC2)c1` [Example 611, (1R,3R,5R)-2-((5-cyclopropyl-3-pyridinyl)carbonyl)-N-((R)-(2-fluoro-4-(trifluoromethyl)phenyl)(3-oxetanyl)methyl)-2-azabicyclo[3.1.0]hexane-3-carboxamide] had an AC1.4 of 3.788 µM.
Turning to `O=C(NCc1ccc(C(F)(F)F)cc1)[C@H]1CCCN1C(=O)[C@H]1CCCN(S(=O)(=O)N2CC(F)(C(F)(F)F)C2)C1` [Example 760, 1-(((3S)-1-((3-fluoro-3-(trifluoromethyl)-1-azetidinyl)sulfonyl)-3-piperidinyl)carbonyl)-N-(4-(trifluoromethyl)benzyl)-D-prolinamide], the AC1.4 is 7.661 µM.
`COc1ccc2c(c1)[C@H](NC(=O)[C@H]1CCCN1C(=O)[C@H]1CCCN(S(=O)(=O)N3CC(C#N)C3)C1)CCO2` [Example 783, 1-(((3S)-1-((3-cyano-1-azetidinyl)sulfonyl)-3-piperidinyl)carbonyl)-N-((4R)-6-methoxy-3,4-dihydro-2H-chromen-4-yl)-D-prolinamide] yielded an AC1.4 of 8.7825 µM.
The result for `O=C(NCc1ccc(C(F)(F)F)cc1)[C@H]1CCCN1C(=O)[C@H]1CCCN(S(=O)(=O)N2CC(F)(c3ccccc3)C2)C1` [Example 463, 1-(((3S)-1-((3-fluoro-3-phenyl-1-azetidinyl)sulfonyl)-3-piperidinyl)carbonyl)-N-(4-(trifluoromethyl)benzyl)-D-prolinamide] reads 1.9305 µM; that for `Cc1cc(F)cc(CNC(=O)[C@H]2CCCN2C(=O)[C@H]2CCCN(S(=O)(=O)N3CC(C#N)C3)C2)c1` [Example 498, 1-(((3S)-1-((3-cyano-1-azetidinyl)sulfonyl)-3-piperidinyl)carbonyl)-N-(3-fluoro-5-methylbenzyl)-D-prolinamide], 2.335 µM.
The compound `O=C(N[C@@H](c1cc(F)c(C(F)(F)F)cc1F)C1CC1)[C@H]1C[C@H]2C[C@H]2N1C(=O)c1cc(Cl)cc2cn[nH]c12` [Example 821, (1R,3R,5R)-2-(5-chloro-1H-indazole-7-carbonyl)-N-((R)-cyclopropyl(2,5-difluoro-4-(trifluoromethyl)phenyl)methyl)-2-azabicyclo[3.1.0]hexane-3-carboxamide] showed an AC1.4 of 1.2142 µM.
With `N#CC1CN(S(=O)(=O)c2cccc(C(=O)N3CCC[C@@H]3C(=O)NCCn3ccc(C(F)(F)F)n3)c2)C1` [Example 689, 1-((3-((3-cyano-1-azetidinyl)sulfonyl)phenyl)carbonyl)-N-(2-(3-(trifluoromethyl)-1H-pyrazol-1-yl)ethyl)-D-prolinamide] the figure was 5.334 µM; with `O=C(N[C@@H](c1cc(F)c(Cl)cc1F)C1CC1)[C@H]1C[C@H]2C[C@H]2N1C(=O)c1cc(S(=O)(=O)C2CC2)ccn1` [Example 138, (1R,3R,5R)-N-((R)-(4-chloro-2,5-difluorophenyl)(cyclopropyl)methyl)-2-((4-(cyclopropylsulfonyl)-2-pyridinyl)carbonyl)-2-azabicyclo[3.1.0]hexane-3-carboxamide], 0.2306 µM.
On to `COCC(=O)NC1CN(S(=O)(=O)N2CCC[C@H](C(=O)N3CCC[C@@H]3C(=O)NCc3ccc(C(F)(F)F)cc3)C2)C1` [Example 692, 1-(((3S)-1-((3-((methoxyacetyl)amino)-1-azetidinyl)sulfonyl)-3-piperidinyl)carbonyl)-N-(4-(trifluoromethyl)benzyl)-D-prolinamide], for which the AC1.4 came out at 5.379 µM.
In the case of `COc1ccc(S(C)(=O)=O)cc1C(=O)N1[C@@H](C(=O)N[C@@H](c2ccc(C(F)(F)F)cc2)C2COC2)C[C@H]2C[C@H]21` [Example 808, (1R,3R,5R)-2-(2-methoxy-5-(methylsulfonyl)benzoyl)-N-((R)-3-oxetanyl(4-(trifluoromethyl)phenyl)methyl)-2-azabicyclo[3.1.0]hexane-3-carboxamide], the AC1.4 amounted to 4.6765 µM.
For `CS(=O)(=O)c1cccc(C(=O)N2CC[C@@H](F)[C@@H]2C(=O)N[C@@H](c2ccc(C(F)(F)F)cc2F)C2CC2)c1` [Example 589, (3R)-N-((R)-cyclopropyl(2-fluoro-4-(trifluoromethyl)phenyl)methyl)-3-fluoro-1-(3-(methylsulfonyl)benzoyl)-D-prolinamide], the AC1.4 was 2.881 µM.
The result for `O=C(NCc1ccc(C(F)(F)F)cc1)[C@H]1CCCN1C(=O)[C@H]1CCCN(S(=O)(=O)NC2CS(=O)(=O)C2)C1` [Example 645, 1-(((3S)-1-((l,l-dioxido-3-thietanyl)sulfamoyl)-3-piperidinyl)carbonyl)-N-(4-(trifluoromethyl)benzyl)-D-prolinamide] reads 4.351 µM; that for `CS(=O)(=O)c1ccnc(C(=O)N2CCCC[C@@H]2C(=O)N[C@@H](c2cc(F)c(Cl)cc2F)C2CC2)c1` [Example 159, (2R)-N-((R)-(4-chloro-2,5-difluorophenyl)(cyclopropyl)methyl)-1-((4-(methylsulfonyl)-2-pyridinyl)carbonyl)-2-piperidinecarboxamide], 0.2735 µM; that for `CC(C)(C)[C@@H](NC(=O)[C@H]1CCCN1C(=O)[C@H]1CCCN(S(=O)(=O)N2CC(C#N)C2)C1)c1ccc(C(F)(F)F)cc1` [Example 740, 1-(((3S)-1-((3-cyano-1-azetidinyl)sulfonyl)-3-piperidinyl)carbonyl)-N-((1R)-2,2-dimethyl-1-(4-(trifluoromethyl)phenyl)propyl)-D-prolinamide], 7.156 µM.
Take `CS(=O)(=O)c1cccc(C(=O)N2CCC[C@@H]2C(=O)N[C@@H](c2ccc(Cl)cc2F)C2CC2)c1` [Example 479, N-((R)-(4-chloro-2-fluorophenyl)(cyclopropyl)methyl)-1-(3-(methylsulfonyl)benzoyl)-D-prolinamide]: the AC1.4 was determined as 1.887 µM.
`N#CC1CC(S(=O)(=O)c2cccc(C(=O)N3CCCC[C@@H]3C(=O)NCc3ccc(C(F)(F)F)nc3)c2)C1` (stereo partly drawn) [Example 460, (R)-1-(3-((3-cyanocyclobutyl)sulfonyl)benzoyl)-N-((6-(trifluoromethyl)pyridin-3-yl)methyl)piperidine-2-carboxamide] displayed an AC1.4 of 1.915 µM.
In turn, `N#CC1CN(S(=O)(=O)N2CCC[C@H](C(=O)N3CCCC[C@@H]3C(=O)NCc3ccc(C(F)(F)F)cc3)C2)C1` [Example 65, (2R)-1-(((3S)-1-((3-cyano-1-azetidinyl)sulfonyl)-3-piperidinyl)carbonyl)-N-(4-(trifluoromethyl)benzyl)-2-piperidinecarboxamide] had an AC1.4 of 0.0748 µM.
With `CN(Cc1ccc(Cl)cc1)C(=O)C1CCCN1C(=O)c1cccc(S(=O)(=O)N2CC(C#N)C2)c1` (centres unmarked) [Example 162, N-(4-chlorobenzyl)-1-((3-((3-cyano-1-azetidinyl)sulfonyl)phenyl)carbonyl)-N-methyl-prolinamide] the figure was 0.2767 µM; with `O=C(N[C@@H](c1cc(F)c(Cl)cc1F)C1COC1)[C@H]1C[C@H]2C[C@H]2N1C(=O)c1ccnc(C(F)(F)F)n1` [Example 500, (1R,3R,5R)-N-((R)-(4-chloro-2,5-difluorophenyl)(3-oxetanyl)methyl)-2-((2-(trifluoromethyl)-4-pyrimidinyl)carbonyl)-2-azabicyclo[3.1.0]hexane-3-carboxamide], 2.346 µM; with `N#C[C@H]1C[C@@H](S(=O)(=O)N2CCC[C@H](C(=O)N3CCC[C@@H]3C(=O)NCc3ccc(C(F)(F)F)cc3)C2)C1` [Example 59, 1-(((3S)-1-((cis-3-cyanocyclobutyl)sulfonyl)-3-piperidinyl)carbonyl)-N-(4-(trifluoromethyl)benzyl)-D-prolinamide], 0.06495 µM.
For `CS(=O)(=O)c1cc(C(=O)N2C[C@H]3C[C@H]3[C@@H]2C(=O)N[C@@H](c2cc(F)c(Cl)cc2F)C2CC2)ccn1` [Example 393, (1R,2R,5S)-N-((R)-(4-chloro-2,5-difluorophenyl)(cyclopropyl)methyl)-3-((2-(methylsulfonyl)-4-pyridinyl)carbonyl)-3-azabicyclo[3.1.0]hexane-2-carboxamide], the AC1.4 turned out to be 1.3425 µM.
`Cc1cc(CNC(=O)[C@H]2CCCN2C(=O)[C@H]2CCCN(S(=O)(=O)N3CC(C#N)C3)C2)ccc1Cl` [Example 137, N-(4-chloro-3-methylbenzyl)-1-(((3S)-1-((3-cyano-1-azetidinyl)sulfonyl)-3-piperidinyl)carbonyl)-D-prolinamide] returned an AC1.4 of 0.2267 µM.
The result for `CN(C)S(=O)(=O)c1cccc(C(=O)N2CCC[C@@H]2C(=O)NCc2ccc(C(F)(F)F)cc2F)c1` [Example 459, 1-(3-(dimethylsulfamoyl)benzoyl)-N-(2-fluoro-4-(trifluoromethyl)benzyl)-D-prolinamide] reads 1.8995 µM; that for `CNc1ccc(S(C)(=O)=O)cc1C(=O)N1CCC[C@@H]1C(=O)N[C@@H](c1ccc(C(F)(F)F)cc1F)C1CC1` [Example 228, N-((R)-cyclopropyl(2-fluoro-4-(trifluoromethyl)phenyl)methyl)-1-(2-(methylamino)-5-(methylsulfonyl)benzoyl)-D-prolinamide], 0.4974 µM; that for `C[C@@H](NC(=O)[C@H]1CCCN1C(=O)c1cccc(S(=O)(=O)N(C)C)c1)c1ccc(C(F)(F)F)cc1` [Example 436, 1-(3-(dimethylsulfamoyl)benzoyl)-N-((1R)-1-(4-(trifluoromethyl)phenyl)ethyl)-D-prolinamide], 1.7 µM.
With `N#CC1CN(S(=O)(=O)c2cccc(C(=O)N3CCC[C@@H]3C(=O)N[C@@H](c3ccc(C(F)(F)F)cc3)C3CC3)c2)C1` [Example 30, 1-(3-((3-cyano-1-azetidinyl)sulfonyl)benzoyl)-N-((R)-cyclopropyl(4-(trifluoromethyl)phenyl)methyl)-D-prolinamide] the figure was 0.0318 µM.
